We go through ten molecules from patent US9850225B2, “Compounds useful as immunomodulators” (BRISTOL-MYERS SQUIBB COMPANY, priority 2014, dated 2017).

In the assay the target is PD-1/PD-L1 interaction (PD-1-Ig / PD-L1-His) (Homo sapiens (Human), UniProt Q9NZQ7). Kind of assay: PD-1/PD-L1 Homogenous Time-Resolved Fluorescence (HTRF) binding assay. The following applies: PD-1/PD-L1 HTRF binding assay, read-out: Range or IC50. The procedure, abridged:
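Human PD-L1-His (10 nM final) was pre-incubated with inhibitor for 15 min, then PD-1-Ig (20 nM final) was added for a further 15 min in dPBS with 0.1% BSA and 0.05% Tween-20. Binding was detected by HTRF using Eu-cryptate anti-Ig (1 nM) and APC anti-His (20 nM).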
(Time-resolved FRET reads energy transfer from a long-lived donor to a nearby acceptor.)

Where two headings read alike, the source gives them in different places.

Sequence of PD-1/PD-L1 interaction (PD-1-Ig / PD-L1-His) (Q9NZQ7 other isoform, or with tags, fused parts or gaps): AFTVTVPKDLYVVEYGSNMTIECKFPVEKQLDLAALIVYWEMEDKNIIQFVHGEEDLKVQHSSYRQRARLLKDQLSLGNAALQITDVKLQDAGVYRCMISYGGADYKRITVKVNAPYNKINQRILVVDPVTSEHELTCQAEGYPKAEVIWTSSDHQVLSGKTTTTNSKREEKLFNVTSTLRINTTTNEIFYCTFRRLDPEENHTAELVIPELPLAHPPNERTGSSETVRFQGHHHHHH

`Cc1cc(CN2CCCC[C@@H]2C(=O)O)c(OCc2cncc(C#N)c2)cc1OCc1cccc(-c2ccc3c(c2)OCCO3)c1C` [Example 1288, (R)-1-(2-((5-cyanopyridin-3-yl)methoxy)-4-(3-(2,3-dihydrobenzo[b][1,4]dioxin-6-yl)-2-methylbenzyloxy)-5-methylbenzyl)piperidine-2-carboxylic acid]: the IC50 (numeric value) amounted to 0.00188 µM. Take `Cc1c(COc2cc(OCc3cccc(C#N)c3)c(CN3CCCC[C@@H]3C(=O)O)cc2Cl)cccc1-c1ccc2c(c1)OCCO2` [Example 1198, (R)-1-(5-chloro-2-((3-cyanobenzyl)oxy)-4-((3-(2,3-dihydrobenzo[b][1,4]dioxin-6-yl)-2-methylbenzyl)oxy)benzyl)piperidine-2-carboxylic acid]: the IC50 (value given as range class) was 0.0006 to 0.01 µM. The same measure, in the same setting: the result for `CC(=O)NCCNCc1cc(C)c(OCc2cccc(-c3ccc4c(c3)OCCO4)c2C)cc1OCc1cccnc1` [Example 1276, N-(2-((4-((3-(2,3-dihydrobenzo[b][1,4]dioxin-6-yl)-2-methylbenzyl)oxy)-5-methyl-2-(pyridin-3-ylmethoxy)benzyl)amino)ethyl)acetamide] reads 0.0006 to 0.01 µM; that for `Cc1cc(CN[C@](C)(CO)C(=O)O)c(OCc2cccc(C#N)c2)cc1OCc1cccc(-c2ccc3c(c2)OCCO3)c1C` [Example 1269, (R)-2-((2-((3-cyanobenzyl)oxy)-4-((3-(2,3-dihydrobenzo[b][1,4]dioxin-6-yl)-2-methylbenzyl)oxy)-5-methylbenzyl)amino)-3-hydroxy-2-methylpropanoic acid], 0.0006 to 0.01 µM.

As to `Cc1c(COc2ccc(CN[C@@H](C(=O)O)[C@H](C)O)c(OCc3cccc(C#N)c3)c2)cccc1-c1ccc2c(c1)OCCO2` [Example 1123, (2R,3S)-2-((2-((3-cyanobenzyl)oxy)-4-((3-(2,3-dihydrobenzo[b][1,4]dioxin-6-yl)-2-methylbenzyl)oxy)benzyl)amino)-3-hydroxybutanoic acid], the IC50 (value given as range class) lay in the range of 0.0006 to 0.01 µM.

Consider `Cc1c(COc2ccc(CN[C@](C)(CO)C(=O)O)c(OCc3cccc(C#N)c3)c2Cl)cccc1-c1ccc2c(c1)OCCO2` [Example 1239, (R)-2-((3-chloro-2-((3-cyanobenzyl)oxy)-4-((3-(2,3-dihydrobenzo[b][1,4]dioxin-6-yl)-2-methylbenzyl)oxy)benzyl)amino)-3-hydroxy-2-methylpropanoic acid], for which the concentration for half-maximal inhibition (IC50) (numeric value) was 0.149 µM.

Consider `CC(=O)NCCNCc1ccc(OCc2cccc(-c3ccccc3)c2C)cc1OCc1ccc(S(C)(=O)=O)cc1` [Example 1084, N-(2-((4-((2-methyl-[1,1′-biphenyl]-3-yl)methoxy)-2-((4-(methylsulfonyl)benzyl)oxy)benzyl)amino)ethyl)acetamide], for which, where the note is “value given as range class”, the IC50 lay within 0.1 to 20 µM. On the same count and under the same terms, in the case of `CC[C@@H](NCc1cc(Cl)c(OCc2cccc(-c3ccc4c(c3)OCCO4)c2C)cc1OCc1cccc(C#N)c1)C(=O)O` [Example 1193, (R)-2-((5-chloro-2-((3-cyanobenzyl)oxy)-4-((3-(2,3-dihydrobenzo[b][1,4]dioxin-6-yl)-2-methylbenzyl)oxy)benzyl)amino)butanoic acid] it was 0.0006 to 0.01 µM; in that of `CC(=O)NCCNCc1ccc(OCc2cccc(-c3ccc4c(c3)OCCO4)c2C)c(Cl)c1OCc1cccc(C#N)c1` [Example 1237, N-(2-((3-chloro-2-((3-cyanobenzyl)oxy)-4-((3-(2,3-dihydrobenzo[b][1,4]dioxin-6-yl)-2-methylbenzyl)oxy)benzyl)amino)ethyl)acetamide], 0.1 to 20 µM; in that of `Cc1c(COc2cc(OCc3cccc(C#N)c3)c(CN[C@@H](Cc3cn(Cc4ccccc4)cn3)C(=O)O)cc2Cl)cccc1-c1ccc2c(c1)OCCO2` [Example 1186, (S)-3-(1-benzyl-1H-imidazol-4-yl)-2-((5-chloro-2-((3-cyanobenzyl)oxy)-4-((3-(2,3-dihydrobenzo[b][1,4]dioxin-6-yl)-2-methylbenzyl)oxy)benzyl)amino)propanoic acid], 0.0006 to 0.01 µM.

One may read the IC50 as the concentration at which inhibition is half-maximal.
